The target in one assay is T1, human TTK (Homo sapiens, UniProt P33981).
T1 construct: amino terminal GST fusion of full length human TTK; purchased Invitrogen
T1 sequence (P33981 1-857): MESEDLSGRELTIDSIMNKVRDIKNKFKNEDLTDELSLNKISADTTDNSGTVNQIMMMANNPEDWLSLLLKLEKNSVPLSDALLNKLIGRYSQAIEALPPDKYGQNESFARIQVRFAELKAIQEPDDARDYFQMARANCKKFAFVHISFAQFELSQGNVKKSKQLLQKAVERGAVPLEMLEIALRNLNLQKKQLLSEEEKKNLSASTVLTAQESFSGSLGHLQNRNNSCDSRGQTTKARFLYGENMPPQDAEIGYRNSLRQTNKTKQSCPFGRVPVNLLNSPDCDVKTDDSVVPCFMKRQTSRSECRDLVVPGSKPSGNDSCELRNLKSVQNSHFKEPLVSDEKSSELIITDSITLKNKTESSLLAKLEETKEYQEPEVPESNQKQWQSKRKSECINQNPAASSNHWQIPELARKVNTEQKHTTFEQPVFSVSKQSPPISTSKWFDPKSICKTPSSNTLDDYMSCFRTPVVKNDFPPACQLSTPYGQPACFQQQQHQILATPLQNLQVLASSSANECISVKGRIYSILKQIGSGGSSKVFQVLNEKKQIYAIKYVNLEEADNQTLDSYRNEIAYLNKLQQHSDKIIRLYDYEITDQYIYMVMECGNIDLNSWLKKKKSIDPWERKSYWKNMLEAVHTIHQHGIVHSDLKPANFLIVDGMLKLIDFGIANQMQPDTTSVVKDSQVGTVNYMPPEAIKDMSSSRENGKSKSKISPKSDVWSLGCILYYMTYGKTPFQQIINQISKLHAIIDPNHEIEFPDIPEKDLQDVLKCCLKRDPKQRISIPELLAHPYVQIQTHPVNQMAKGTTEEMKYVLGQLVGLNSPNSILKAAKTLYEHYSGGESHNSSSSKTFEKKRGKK
As to the kind of experiment: TTK inhibition assay (indirect ELISA). In kind it is biochemical. The settings on record: read-out: TTK IC50 Range.

Assay [1] relates to colon cancer cells (HCT116). The experiment in a line: Cancer cell line growth inhibition (SRB assay). The settings on record: Homo sapiens, HCT-116; HCT116 colon cancer cells, SRB assay; read-out: Cancer Cell Line GI50 Range HCT116. In kind it is cell-based.
Protocol: Breast cancer cells (MDA-MB-231), colon cancer cells (HCT116) and ovarian cancer cells (PA-1) were seeded (1000 to 4000 in 80 μl per well depending on the cell growth rate) into 96 well plates 24 hours before compound overlay. Compounds were prepared as 10 mM stock solutions in 100% DMSO which were diluted with DMEM (Dulbecco's Modified Eagle's Medium) cell growth Medium (Invitrogen, Burlington, ON, Canada) containing 10% FBS (Fetal Bovine Serum) to concentrations ranging from 50 nM to 250 μM. Aliquots (20 μl) from each concentration were overlaid to 80 μl of the pre-seeded cells in the 96 well plates to make final concentrations of 10 nM to 50 μM. The cells were cultured for 5 days before the Sulforhodamine B assay (SRB) was performed to determine the compound's cell growth inhibition activity.
Sulforhodamine B (purchased from Sigma, Oakville, ON, Canada) is a water-soluble dye that binds to the basic amino acids of the cellular proteins. Thus, colorimetric measurement of the bound dye provides an estimate of the total protein mass that is related to the cell number. the cells are fixed in situ by gently aspirating off the culture media and adding 50 μl ice cold 10% Trichloroacetic Acid (TCA) per well and incubate at 4° C. for 30-60 min. The plates are washed with H2O five times and allowed to air dry for 5 min. Addition of 50 μl 0.4% (w/v) SRB solution in 1% (v/v) acetic acid to each well and incubation for 30 min at RT completes the staining reaction. Following staining, plates are washed four times with 1% acetic acid to remove unbound dye and then allowed to air dry for 5 min. The stain is solubilized with 100 μl of 10 mM Tris pH 10.5 per well. Absorbance is read at 570 nm.
The percentage (%) of relative growth inhibition was calculated by comparing to DMSO treated only cells (100%). GI50's were determined for compounds with cytotoxic activity. The GI50 was calculated using GraphPad PRISM software (GraphPad Software, Inc., San Diego, Calif., USA).
Assay [2] has as its system ovarian cancer cells (PA-1). The experiment in a line: Cancer cell line growth inhibition (SRB assay). In kind it is cell-based. As to conditions: PA-1 ovarian cancer cells, SRB assay; read-out: Cancer Cell Line GI50 Range PA-1.

For the compound `O=C(NCC1(N2CCOCC2)CCCOC1)c1ccc2[nH]nc(-c3ccc(N4[C@@H]5CC[C@H]4COC5)cc3)c2c1` (stereo partly drawn) [Example A517, 3-(4-((1R,5S)-3-oxa-8-azabicyclo[3.2.1]octan-8-yl)phenyl)-N-((3-morpholinotetrahydro-2H-pyran-3-yl)methyl)-1H-indazole-5-carboxamide], the IC50 on human TTK is less than 100 nM.
For `CC(C)C[C@H](NC(=O)c1ccc2[nH]nc(-c3ccc(N4[C@@H]5CC[C@H]4COC5)cc3)c2c1)c1ccccc1F` [Example A519, 3-(4-((1R,5S)-3-oxa-8-azabicyclo[3.2.1]octan-8-yl)phenyl)-N-((S)-1-(2-fluorophenyl)-3-methylbutyl)-1H-indazole-5-carboxamide], on human TTK, the IC50 was less than 100 nM.
On to `C[C@@H]1CC(CNC(=O)c2ccc3[nH]nc(-c4ccc(OC5CCN(C)CC5)cc4)c3c2)(N2CCOCC2)C[C@H](C)O1` (stereo partly drawn) [Example A475, N-(((2R,6S)-2,6-dimethyl-4-morpholinotetrahydro-2H-pyran-4-yl)methyl)-3-(4-((1-methylpiperidin-4-yl)oxy)phenyl)-1H-indazole-5-carboxamide], for which the IC50 on human TTK was in the range of 100 to 500 nM.
For `O=C(NCC1(N2CCC(F)(F)CC2)CCCCC1)c1ccc2[nH]nc(-c3ccc(N4CCOCC4)cc3)c2c1` [Example A457, N-((1-(4,4-difluoropiperidin-1-yl)cyclohexyl)methyl)-3-(4-morpholinophenyl)-1H-indazole-5-carboxamide], the IC50 at human TTK lay in the range of 100 to 500 nM.
Same read-out and setting: as for `CN1CCC(Oc2ccc(-c3n[nH]c4ccc(C(=O)NCC5(CN6CCOCC6)CC5)cc34)cc2)CC1` [Example A498, 3-(4-((1-methylpiperidin-4-yl)oxy)phenyl)-N-((1-(morpholinomethyl)cyclopropyl)methyl)-1H-indazole-5-carboxamide], the figure is 100 to 500 nM.
`CO[C@@H](C(=O)Nc1ccc2[nH]nc(-c3ccc(O[C@@H]4CCN(C)C[C@@H]4F)cc3)c2c1)c1ccccc1` (relative stereo) [Example A135, (R)-N-(3-(4-(((3S,4R)-3-fluoro-1-methylpiperidin-4-yl)oxy)phenyl)-1H-indazol-5-yl)-2-methoxy-2-phenylacetamide]: the GI50 in assay [1] and in assay [2] was 100 to 500 nM throughout.
Consider `CO[C@@H](C(=O)Nc1ccc2[nH]nc(-c3ccc(OCC4CCN(C)CC4)cc3)c2c1)c1ccccc1` [Example A145, (R)-2-methoxy-N-(3-(4-((1-methylpiperidin-4-yl)methoxy)phenyl)-1H-indazol-5-yl)-2-phenylacetamide], for which the GI50 in assay [1] and in assay [2] was 100 to 500 nM throughout.
Consider `CCc1cccc(CC)c1NC(=O)Nc1ccc2[nH]nc(-c3ccc(N4CCOCC4)cc3)c2c1` [Example A86, 1-(2,6-diethylphenyl)-3-(3-(4-morpholinophenyl)-1H-indazol-5-yl)urea], for which the results for the GI50 in assay [1] and in assay [2] were less than 100 nM and 100 to 500 nM, respectively.
The like results for `O=CN1CCC(Oc2ccc(-c3n[nH]c4ccc(C(=O)NC(c5ccccc5)C5CC5)cc34)cc2)CC1` (stereo not shown) [Example A126, N-(cyclopropyl(phenyl)methyl)-3-(4-((1-formylpiperidin-4-yl)oxy)phenyl)-1H-indazole-5-carboxamide] were, in that order, 100 to 500 nM and 100 to 500 nM.
With `COC1CCN(c2ccc(-c3n[nH]c4ccc(NC(=O)C(c5ccsc5)N5CCCC5)cc34)cc2)CC1` (stereo not shown) [Example A116, N-(3-(4-(4-methoxypiperidin-1-yl)phenyl)-1H-indazol-5-yl)-2-(pyrrolidin-1-yl)-2-(thiophen-3-yl)acetamide], the GI50 in assay [1] and in assay [2] was 100 to 500 nM each time.
As for `COc1cc(-c2n[nH]c3ccc(C(=O)NC(c4ccccc4)C4CC4)cc23)ccc1OC1CCN(C2COC2)CC1` (stereo not shown) [Example A194, N-(cyclopropyl(phenyl)methyl)-3-(3-methoxy-4-((1-(oxetan-3-yl)piperidin-4-yl)oxy)phenyl)-1H-indazole-5-carboxamide], the GI50 in assay [1] and in assay [2] was 100 to 500 nM in each case.
In the case of `CN1CCC(Oc2cccc(-c3n[nH]c4ccc(NC(=O)C(c5ccsc5)N5CCCC5)cc34)c2)CC1` (stereo not shown) [Example A99, N-(3-(3-((1-methylpiperidin-4-yl)oxy)phenyl)-1H-indazol-5-yl)-2-(pyrrolidin-1-yl)-2-(thiophen-3-yl)acetamide], the GI50 in assay [1] and in assay [2] was more than 500 nM throughout.
For `CN1CCC(Oc2ccc(-c3n[nH]c4ccc(NC(=O)C5OCCc6ccccc65)cc34)cc2)CC1` (stereo not shown) [Example A146, N-(3-(4-(1-Methylpiperidin-4-yloxy)phenyl)-1H-indazol-5-yl)isochroman-1-carboxamide], the GI50 is more than 500 nM in assay [1] and 100 to 500 nM in assay [2].
In the case of `COCCN1CCC(Oc2ccc(-c3n[nH]c4ccc(NC(=O)[C@H](OC)c5ccccc5)cc34)cc2)CC1` [Example A107, (R)-2-methoxy-N-(3-(4-((1-(2-methoxyethyl)piperidin-4-yl)oxy)phenyl)-1H-indazol-5-yl)-2-phenylacetamide], the GI50 in assay [1] and in assay [2] was 100 to 500 nM in each case.
Take `O=C(Nc1ccc2[nH]nc(-c3ccc(N4CCOCC4)cc3)c2c1)C(c1cccs1)N1CCCC1` (stereo not shown) [Example A82, N-(3-(4-morpholinophenyl)-1H-indazol-5-yl)-2-(pyrrolidin-1-yl)-2-(thiophen-2-yl)acetamide]: the GI50 in assay [1] and in assay [2] was less than 100 nM in each case.
On to `CN1CCC(Oc2ccc(-c3n[nH]c4ccc(C(=O)NCC(c5ccccc5)C5CCCC5)cc34)cc2)CC1` (stereo not shown) [Example A207, N-(2-cyclopentyl-2-phenylethyl)-3-(4-((1-methylpiperidin-4-yl)oxy)phenyl)-1H-indazole-5-carboxamide], for which the GI50 in assay [1] and in assay [2] was 100 to 500 nM each time.
On to `O=C(NC(c1ccsc1)C1CCC1)c1ccc2[nH]nc(-c3ccc(N4CCOCC4)cc3)c2c1` (stereo not shown) [Example A123, N-(cyclobutyl(thiophen-3-yl)methyl)-3-(4-morpholinophenyl)-1H-indazole-5-carboxamide], for which the GI50 in assay [1] was 100 to 500 nM; in assay [2] it was less than 100 nM.
In the case of `O=C(Nc1ccc2[nH]nc(-c3ccc(N4CCC(O)CC4)cc3)c2c1)C(c1ccccc1)C1CC1` (stereo not shown) [Example A103, 2-cyclopropyl-N-(3-(4-(4-hydroxypiperidin-1-yl)phenyl)-1H-indazol-5-yl)-2-phenylacetamide], the GI50 in assay [1] and in assay [2] was less than 100 nM in each case.
Consider `CN1CCC(Oc2ccc(-c3n[nH]c4ccc(C(=O)NCc5ccccc5CO)cc34)cc2)CC1` [Example A142, N-(2-(hydroxymethyl)benzyl)-3-(4-((1-methylpiperidin-4-yl)oxy)phenyl)-1H-indazole-5-carboxamide], for which the GI50 was 100 to 500 nM in assay [1] and more than 500 nM in assay [2].
With `CN1CCOC(c2ccc(-c3n[nH]c4ccc(C(=O)NC(c5ccccc5)C5CC5)cc34)cc2)C1` (stereo not shown) [Example A139, N-(cyclopropyl(phenyl)methyl)-3-(4-(4-methylmorpholin-2-yl)phenyl)-1H-indazole-5-carboxamide], the GI50 in assay [1] and in assay [2] was 100 to 500 nM each time.
Regarding `Cc1ccccc1C(NC(=O)c1ccc2[nH]nc(-c3ccc(N4CCOCC4)cc3)c2c1)C1CC1` (stereo not shown) [Example A119, N-(cyclopropyl(o-tolyl)methyl)-3-(4-morpholinophenyl)-1H-indazole-5-carboxamide], the GI50 in assay [1] and in assay [2] was 100 to 500 nM each time.

Source of the values: patent US9580390B2, “Indazole compounds as kinase inhibitors and method of treating cancer with same” (University Health Network, priority 2011, dated 2017).
